Laboratory results reported in US11110055B2, “Pharmaceutical formulations of tropomyosin related kinase (TRK) inhibitors” (Genzyme Corporation, priority 2014, dated 2021).

Test: Physical stability and aqueous dissolution of monohydrate versus anhydrate form
Assay type: physicochemical

COc1ccc(COc2ccc(Cn3c(N)nc4cc(-c5cnn(C)c5)cnc43)cc2OC)cc1 [GZ389988, 3-(3-methoxy-4-((4-methoxybenzyl)oxy)benzyl)-6-(1-methyl-1H-pyrazol-4-yl)-3H-imidazo[4,5-b]pyridin-2-amine]
stability in solution: relatively unstable in solution

COc1ccc(COc2ccc(Cn3c(N)nc4cc(-c5cnn(C)c5)cnc43)cc2OC)cc1 [GZ389988A, 3-(3-methoxy-4-((4-methoxybenzyl)oxy)benzyl)-6-(1-methyl-1H-pyrazol-4-yl)-3H-imidazo[4,5-b]pyridin-2-amine monohydrate]
aqueous dissolution compared to the anhydrate form: slower aqueous dissolution | physical stability compared to the anhydrate form: better physical stability
